From ChEMBL document CHEMBL3621066, “Vascular barrier protective effects of 3-N- or 3-O-cinnamoyl carbazole derivatives” (Bioorg Med Chem Lett, 2015)

Columns and labels:
[1] = system: HUVEC; assay: Inhibition of HMGB1-induced hyperpermeability of Evans blue-bound albumin in human HUVEC at 10 uM after 6 hrs by spectrophotometric analysis relative to control; type: functional
[2] = system: Mus musculus; assay: Antiinflammatory activity in mouse assessed as inhibition of HMGB1-induced hyperpermeability of Evans blue dye to peritoneal cavity at 342.4 ug/kg administered 16 hrs after HMGB1 challenge measured after 6 hrs; type: functional
[3] = system: HUVEC; assay: Antiinflammatory activity in human HUVEC assessed as inhibition of HMGB1-induced human neutrophils migration into cells at 10 uM after 6 hrs using crystal violet staining; type: functional
[4] = system: Mus musculus; assay: Antiinflammatory activity in mouse assessed as inhibition of HMGB1-induced leukocyte migration into peritoneal cavity at 342.4 ug/kg administered 16 hrs after HMGB1 challenge measured after 6 hrs by light microscopic analysis; type: functional
[5] = system: HUVEC; assay: Cytotoxicity against human HUVEC assessed as cell viability up to 20 uM after 24 hrs; type: cell-based
[6] = system: Mus musculus; assay: Antiinflammatory activity in mouse assessed as inhibition of HMGB1-induced hyperpermeability of Evans blue dye to peritoneal cavity at 372.4 ug/kg administered 16 hrs after HMGB1 challenge measured after 6 hrs; type: functional
[7] = system: Mus musculus; assay: Antiinflammatory activity in mouse assessed as inhibition of HMGB1-induced leukocyte migration into peritoneal cavity at 372.4 ug/kg administered 16 hrs after HMGB1 challenge measured after 6 hrs by light microscopic analysis; type: functional
[8] = system: Mus musculus; assay: Antiinflammatory activity in mouse assessed as inhibition of HMGB1-induced hyperpermeability of Evans blue dye to peritoneal cavity at 402.4 ug/kg administered 16 hrs after HMGB1 challenge measured after 6 hrs; type: functional
[9] = system: Mus musculus; assay: Antiinflammatory activity in mouse assessed as inhibition of HMGB1-induced leukocyte migration into peritoneal cavity at 402.4 ug/kg administered 16 hrs after HMGB1 challenge measured after 6 hrs by light microscopic analysis; type: functional
[10] = system: Mus musculus; assay: Antiinflammatory activity in mouse assessed as inhibition of HMGB1-induced hyperpermeability of Evans blue dye to peritoneal cavity at 403.4 ug/kg administered 16 hrs after HMGB1 challenge measured after 6 hrs; type: functional
[11] = system: Mus musculus; assay: Antiinflammatory activity in mouse assessed as inhibition of HMGB1-induced leukocyte migration into peritoneal cavity at 403.4 ug/kg administered 16 hrs after HMGB1 challenge measured after 6 hrs by light microscopic analysis; type: functional

Row | SMILES | inhibition at 10 µM [1] [%] | inhibition in vivo at 0.3424 mg/kg [2] [%] | inhibition at 10 µM [3] [%] | inhibition in vivo at 0.3424 mg/kg [4] [%] | Activity [5] | inhibition in vivo at 0.3724 mg/kg [6] [%] | inhibition in vivo at 0.3724 mg/kg [7] [%] | inhibition in vivo at 0.4024 mg/kg [8] [%] | inhibition in vivo at 0.4024 mg/kg [9] [%] | inhibition in vivo at 0.4034 mg/kg [10] [%] | inhibition in vivo at 0.4034 mg/kg [11] [%]
1 | COc1ccc(/C=C/C(=O)Nc2ccc3[nH]c4ccccc4c3c2)cc1 | 3.6 | 1.4 | 4.8 | 0.8 | Non-toxic | – | – | – | – | – | –
2 | COc1ccc(/C=C/C(=O)Nc2ccc3[nH]c4ccccc4c3c2)cc1OC | 42.9 | – | 43.5 | – | Non-toxic | 26.2 | 39 | – | – | – | –
3 | COc1cc(/C=C/C(=O)Nc2ccc3[nH]c4ccccc4c3c2)cc(OC)c1OC | 68.4 | – | 62 | – | Non-toxic | – | – | 57.5 | 60.3 | – | –
4 | COc1cc(/C=C/C(=O)Oc2ccc3[nH]c4ccccc4c3c2)cc(OC)c1OC | 70.2 | – | 65.4 | – | Non-toxic | – | – | – | – | 58.9 | 61.2
